In ChEMBL document CHEMBL4680163, “Discovery of potent epidermal growth factor receptor (EGFR) degraders by proteolysis targeting chimera (PROTAC)” (Eur J Med Chem, 2020) one finds IC50 data, which are given here for 13 compounds.

Structures are written as SMILES. Some results are limits rather than exact numbers.

Common to all, as to type: functional, cell-based
For test [1], the system named is A-431. Description: Antiproliferative activity against human A-431 cells harboring EGFR assessed as reduction in cell viability incubated for 72 hrs by MTT assay. As to conditions: A-431, 72 h. In general terms: Tetrazolium assays rely on reduction of a dye to a coloured formazan, in cell work by metabolically active cells.
The test system of test [2] is HCC827. In words: Antiproliferative activity against human HCC827 cells harboring EGFRDel19 mutant assessed as reduction in cell viability incubated for 72 hrs by MTT assay. As to conditions: HCC827, 72 h.
The subject of test [3] is A549. Description: Antiproliferative activity against human A549 cells harboring EGFR assessed as reduction in cell viability incubated for 72 hrs by MTT assay. As to conditions: A549, 72 h.
The test system of test [4] is NCI-H1975. In words: Antiproliferative activity against human NCI-H1975 cells harboring EGFR L858/T790M mutant assessed as reduction in cell viability incubated for 72 hrs by MTT assay. As to conditions: NCI-H1975, 72 h.

As usually defined, the IC50 is the concentration that gives 50% inhibition. As for `CN(C)C1CCN(c2ccc(Nc3cc4c(N5CCN(CC(=O)NCCC(=O)Nc6cccc7c6CN(C6CCC(=O)NC6=O)C7=O)CC5)nc(Nc5ccc(F)cc5)nc4cn3)nc2)CC1` (centres undefined), the results for the IC50 in test [1] and in test [2] were > 10000 nM and 4630 nM, respectively. Take `O=C1CCC(N2Cc3c(NC(=O)CCCCN4CCN(c5ccc(Nc6cc7c(N8CCC(CO)CC8)nc(Nc8ccc(F)cc8)nc7cn6)nc5)CC4)cccc3C2=O)C(=O)N1` (centres undefined): the IC50 in test [2] is > 10000 nM. On the same count and under the same terms, for `O=C1CCC(N2Cc3c(NC(=O)CCCCCCN4CCN(c5ccc(Nc6cc7c(N8CCC(CO)CC8)nc(Nc8ccc(F)cc8)nc7cn6)nc5)CC4)cccc3C2=O)C(=O)N1` (centres undefined) the value was 1210 nM; for `O=C1CCC(N2Cc3c(NC(=O)CCCCCN4CCN(c5ccc(Nc6cc7c(N8CCC(CO)CC8)nc(Nc8ccc(F)cc8)nc7cn6)nc5)CC4)cccc3C2=O)C(=O)N1` (centres undefined), > 10000 nM.

For `Cc1ncsc1-c1ccc(CNC(=O)[C@@H]2C[C@@H](O)CN2C(=O)[C@@H](NCCOCCOCCn2cc(CN3CCN(c4ccc(Nc5cc6c(N7CCC(CO)CC7)nc(Nc7ccc(F)cc7)nc6cn5)nc4)CC3)nn2)C(C)(C)C)cc1`, the IC50 is > 10000 nM in test [1], 1760 nM in test [2], > 10000 nM in test [3] and > 10000 nM in test [4]. `Nc1cccc2c1CN(C1CCC(=O)NC1=O)C2=O` (centres undefined) [LENALIDOMIDE]: in test [2], the IC50 is > 10000 nM. For the compound `O=C1CCC(N2Cc3c(NC(=O)CCCCCCCn4cc(CN5CCN(c6ccc(Nc7cc8c(N9CCC(CO)CC9)nc(Nc9ccc(F)cc9)nc8cn7)nc6)CC5)nn4)cccc3C2=O)C(=O)N1` (centres undefined), the IC50 is > 10000 nM in test [1], 7910 nM in test [2] and > 10000 nM in test [4]. `O=C(CN1CCN(c2ccc(Nc3cc4c(N5CCC(CO)CC5)nc(Nc5ccc(F)cc5)nc4cn3)nc2)CC1)NCCC(=O)Nc1cccc2c1CN(C1CCC(=O)NC1=O)C2=O` (centres undefined): the IC50 in test [2] was 2760 nM. For the compound `Cc1ncsc1-c1ccc(CNC(=O)[C@@H]2C[C@@H](O)CN2C(=O)[C@@H](NCCOCCOCCOCCN2CCN(c3ccc(Nc4cc5c(N6CCC(CO)CC6)nc(Nc6ccc(F)cc6)nc5cn4)nc3)CC2)C(C)(C)C)cc1`, the IC50 in test [1] is 2320 nM; in test [2] it was 710 nM; in test [3], 6390 nM; in test [4] it was 2640 nM.

In the case of `Cc1ncsc1-c1ccc(CNC(=O)[C@@H]2C[C@@H](O)CN2C(=O)[C@@H](N)C(C)(C)C)cc1`, in test [2], the IC50 is > 10000 nM. For the compound `Cc1ncsc1-c1ccc(CNC(=O)[C@@H]2C[C@@H](O)CN2C(=O)[C@@H](NC(=O)CCCCN2CCN(c3ccc(Nc4cc5c(N6CCC(CO)CC6)nc(Nc6ccc(F)cc6)nc5cn4)nc3)CC2)C(C)(C)C)cc1`, in test [2], the IC50 was found to be 1490 nM.

As for `Cc1ncsc1-c1ccc(CNC(=O)[C@@H]2C[C@@H](O)CN2C(=O)[C@@H](NCCOCCOCCN2CCN(c3ccc(Nc4cc5c(N6CCC(CO)CC6)nc(Nc6ccc(F)cc6)nc5cn4)nc3)CC2)C(C)(C)C)cc1`, the values for the IC50 in test [1], in test [2] and in test [4] were 2460 nM, 340 nM and 2970 nM, respectively. As to `CN(C)C1CCN(c2ccc(Nc3cc4c(N5CCN(CCCCCCCC(=O)Nc6cccc7c6CN(C6CCC(=O)NC6=O)C7=O)CC5)nc(Nc5ccc(F)cc5)nc4cn3)nc2)CC1` (centres undefined), the IC50 in test [2] was 1450 nM.
